Columns and labels:
mice = experiment: Forced swim test in LPS-treated mice (improvement of depression); assay type: in vivo; conditions: forced swim test on Day 6; oral gavage 0.02 mL/10 g daily Days 1-5; LPS 1 mg/kg intraperitoneally Days 3, 4, 5; 10 mice per group
Description: (§1) The antidepressant effect of the composition was evaluated through the forced swim test in mice and measurement of oxidative stress levels in the cerebral cortex. Specific procedures were as follows:
(§2) Mice aged 8-9 weeks were selected as test subjects (10 mice per composition group for differential analysis and multiple comparisons; in differential analysis, * denoted p<0.05, ** p<0.01, *** p<0.001). The neural repair compositions prepared in the above examples and comparative examples were administered to mice via oral gavage. A positive control group treated with lipopolysaccharide (LPS) and a blank control group treated with physiological saline were included. From Days 1-5, mice were orally gavaged daily at the same time with 0.02 mL (normalized to body weight)/10 g of the compositions. On Days 3, 4, and 5, LPS (1 mg/kg) was intraperitoneally administered alongside the compositions. The positive control group differed by receiving only LPS (1 mg/kg) on Days 3, 4, and 5, while the blank control group received physiological saline throughout Days 1-5. On Day 6, behavioral tests (immobility time in the forced swim test, in s) and tissue sampling for oxidative stress assessment (reactive oxygen species absorption levels, expressed as absorbance) were conducted. The results are detailed in FIG. *to FIG. 2 and Tables 1-2.

reactive oxygen species = experiment: Oxidative stress level (ROS) in the cerebral cortex of LPS-treated mice; assay type: in vivo; conditions: cerebral cortex sampled Day 6; oral gavage 0.02 mL/10 g daily Days 1-5; LPS 1 mg/kg intraperitoneally Days 3, 4, 5
Description: as §1, §2

In the case of lipopolysaccharide [LPS], the “Immobility time of mice” value (mice) is reported as 230 ± 26 s and the ROS absorption level (reactive oxygen species) is reported as 0.47 ± 0.10 absorbance.

— patent publication US20260115249A1, “NEURAL REPAIR COMPOSITION, METHOD OF PREPARATION, AND USE THEREOF” (SHENZHEN JINFENG BIOMEDICAL TECH. CO., LTD., priority 2023, published 2026)
